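Compound exposure: 48 hours, 5 concentrations, 96-well plates. GI50: concentration for 50% inhibition of growth. Definition used: TGI = concentration required for complete inhibition of growth.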
Experiments:
Test in all cases: growth of human tumour cells (NCI), 48 h
U251 CNS = tested on: U251 CNS
SK-MEL-5 melanoma = tested on: SK-MEL-5 melanoma
HCC-2998 colon = tested on: HCC-2998 colon
SNB-75 CNS = tested on: SNB-75 CNS
A498 renal = tested on: A498 renal
CCRF-CEM leukemia = tested on: CCRF-CEM leukemia
NCI/ADR-RES ovarian = tested on: NCI/ADR-RES ovarian
MCF7 breast = tested on: MCF7 breast
SF-268 CNS = tested on: SF-268 CNS
DU-145 prostate = tested on: DU-145 prostate

SMILES	TGI (U251 CNS) [µM]	TGI (SK-MEL-5 melanoma) [µM]	TGI (HCC-2998 colon) [µM]	TGI (SNB-75 CNS) [µM]	TGI (A498 renal) [µM]	TGI (CCRF-CEM leukemia) [µM]	GI50 (U251 CNS) [µM]	GI50 (NCI/ADR-RES ovarian) [µM]	GI50 (HCC-2998 colon) [µM]	TGI (MCF7 breast) [µM]	GI50 (SF-268 CNS) [µM]	TGI (SF-268 CNS) [µM]	GI50 (DU-145 prostate) [µM]	GI50 (CCRF-CEM leukemia) [µM]	GI50 (SK-MEL-5 melanoma) [µM]	GI50 (SNB-75 CNS) [µM]	GI50 (A498 renal) [µM]	TGI (NCI/ADR-RES ovarian) [µM]	GI50 (MCF7 breast) [µM]	TGI (DU-145 prostate) [µM]
NC(CCCC(N)P(=O)(O)O)P(=O)(O)O (stereo unspecified)	> 100	> 100	> 100	> 100	> 100	> 100	–	–	–	–	–	–	–	–	–	–	–	–	–	–
COc1ccc2c(c1)C(=O)CCc1cc(OC)c(OC)c(OC)c1-2	0.18	–	–	–	–	> 100	< 0.01	< 0.01	< 0.01	> 100	0.0652	> 100	< 0.01	< 0.01	–	–	–	–	–	–
CCC[CH2][Sn]([CH2]CCC)([O]C(=O)CN)[O]C(=O)CN	80.7	> 100	> 100	> 100	> 100	51.8	26	–	93.3	–	20.6	71.6	–	5.93	66.6	29.6	44.8	–	–	–
CCCCCCCCCCCCCP(=O)(O)O	> 100	> 100	> 100	> 100	> 100	> 100	–	–	–	–	–	> 100	–	–	–	–	–	–	–	–
[N-]=[N+]=NCCCn1c2c(c3ccc([N+](=O)[O-])cc3c1=O)C(=O)c1ccccc1-2	> 100	9.31	–	–	–	–	4.28	> 100	–	> 100	79.8	> 100	> 100	–	2.39	–	–	> 100	4.19	> 100
N#C/C(=C/c1cccc(Oc2ccccc2)c1)c1ccccc1	> 100	> 100	> 100	> 100	> 100	> 100	–	–	–	–	–	> 100	–	–	–	–	–	–	–	–
CCC1=CCN(c2cc(C)ccn2)OC1c1ccc(OC)cc1 (stereo unspecified)	44.1	30.5	86.8	> 100	–	85.7	–	–	–	–	–	> 100	–	–	–	–	–	–	–	–
COc1ccc([C@@]2(O)c3c(ccc(O)c3OC)[C@H]2OC)c(OC)c1	> 100	> 100	> 100	> 100	> 100	> 100	–	–	–	–	–	> 100	–	–	–	–	–	–	–	–
CSC(SC)(C(=O)O)c1cc(-c2c(Cl)cccc2Cl)no1	> 100	85.8	–	> 100	–	> 100	–	–	–	> 100	–	> 100	–	–	–	–	–	> 100	–	> 100
COc1ccc(C=O)cc1O[Si](C)(C)C(C)(C)C	> 100	> 100	> 100	> 100	> 100	> 100	–	–	–	–	–	> 100	–	–	–	–	–	–	–	–
O=C(O)CCCc1ccc2ccc3ccccc3c2c1	> 100	> 100	–	87.4	> 100	–	–	–	–	> 100	–	> 100	–	–	–	–	–	> 100	–	> 100
COc1ccc2nc3cc(Cl)ccc3c(Sc3ccc([N+](=O)[O-])cc3C)c2c1	> 100	> 100	> 100	> 100	> 100	> 100	–	–	–	–	–	> 100	–	–	–	–	–	–	–	–
O=C(Nc1ccc(C(F)(F)F)cc1[N+](=O)[O-])C(=O)C1NC(=S)NC1=O (stereo unspecified)	> 100	> 100	> 100	97.2	> 100	> 100	–	–	–	–	–	> 100	–	–	–	–	–	–	–	–
COCCOC(=O)C1=C(O)c2ccccc2S(=O)(=O)N1C	> 100	> 100	> 100	87.6	> 100	> 100	–	–	–	–	–	> 100	–	–	–	–	–	> 100	–	> 100
CC(=O)Oc1c(C)c(-c2ccccc2)c(C)c(-c2ccccc2)c1C(=S)c1ccccc1	> 100	> 100	> 100	> 100	> 100	> 100	–	–	–	–	–	> 100	–	–	–	–	–	–	–	–
C[C@]12CC=CC(=O)[C@@]1(C)CCC(=O)C2	> 100	> 100	> 100	> 100	> 100	> 100	–	–	–	–	–	> 100	–	–	–	–	–	–	–	–
COc1cc(NCC(C#N)C#N)ccc1N=Nc1ccc(Cl)cc1	37	45.9	35.1	90.1	> 100	61.9	–	–	–	–	–	> 100	–	–	–	–	–	–	–	–
COc1cc(NS(=O)(=O)c2ccc(C)cc2)c2nccnc2c1	89.3	63.7	> 100	78.1	> 100	81.2	–	–	–	–	–	93.7	–	–	–	–	–	–	–	–
C=C(C)[C@@H]1CC[C@]2(COCCCN)CC[C@]3(C)[C@H](CC[C@@H]4[C@@](C)(CCCNCCCN)[C@H](C(=C)C)CC[C@]43C)[C@@H]12	3.19	3.27	–	–	37.1	7.34	1.7	1.88	–	3.22	1.84	3.72	1.92	2.39	1.81	–	14.5	3.63	1.59	3.43

SMILES	TGI (U251 CNS) [µM]	TGI (SK-MEL-5 melanoma) [µM]	TGI (HCC-2998 colon) [µM]	TGI (SNB-75 CNS) [µM]	TGI (A498 renal) [µM]	TGI (CCRF-CEM leukemia) [µM]	GI50 (U251 CNS) [µM]	GI50 (NCI/ADR-RES ovarian) [µM]	GI50 (HCC-2998 colon) [µM]	TGI (MCF7 breast) [µM]	GI50 (SF-268 CNS) [µM]	TGI (SF-268 CNS) [µM]	GI50 (DU-145 prostate) [µM]	GI50 (CCRF-CEM leukemia) [µM]	GI50 (SK-MEL-5 melanoma) [µM]	GI50 (SNB-75 CNS) [µM]	GI50 (A498 renal) [µM]	TGI (NCI/ADR-RES ovarian) [µM]	GI50 (MCF7 breast) [µM]	TGI (DU-145 prostate) [µM]
COC(=O)C(=O)CC(=O)CCn1[nH]c(=O)c(Cl)c(Cl)c1=O	> 100	> 100	> 100	> 100	> 100	–	–	–	–	–	–	> 100	–	–	–	–	–	–	–	–
CC(=O)Oc1cc2c(cc1OC(C)=O)C1(C)CCC2(C)c2cc(OC(C)=O)c(OC(C)=O)cc21	–	54.7	71.9	91.7	–	11.4	–	–	–	–	–	> 100	–	–	–	–	–	–	–	–
Cc1cn(C2CC(OC(=O)c3ccc(Cl)cc3)C(COC(=O)c3ccc(Cl)cc3)O2)c(=O)[nH]c1=O (stereo unspecified)	> 100	> 100	–	> 100	–	> 100	–	–	–	> 100	–	> 100	–	–	–	–	–	> 100	–	> 100
O=C1C=C(Nc2ccccc2C(=O)CC(=O)C(=O)Nc2cccc([N+](=O)[O-])c2)c2ccccc2C1=O	> 100	26.3	> 100	> 100	> 100	87.8	–	–	–	–	–	88.6	–	–	–	–	–	–	–	–
O=C1N/C(=C\[N+](=O)[O-])c2ccccc21	> 100	> 100	> 100	93.3	> 100	> 100	–	–	–	–	–	> 100	–	–	–	–	–	–	–	–
CC(=O)c1ccc(NC(=O)/C(CC(=O)c2sc(-c3cccnc3)nc2C)=N/NC(N)=O)cc1	> 100	> 100	–	–	> 100	66.5	–	–	–	–	–	> 100	–	–	–	–	–	–	–	–
NC1=NN(c2ccccc2)C(=O)C1C(=O)CCC(=O)Nc1cccc(Cl)c1 (stereo unspecified)	> 100	> 100	> 100	> 100	> 100	> 100	–	–	–	–	–	> 100	–	–	–	–	–	–	–	–
CN(C)C/C=C/C(=O)Nc1ccc(C(=O)N[C@@]2(C)CCC[C@@H](Nc3ncc(Cl)c(-c4c[nH]c5ccccc45)n3)C2)nc1	–	0.779	0.164	0.0427	0.0621	1.3	–	–	< 0.01	–	–	–	0.0153	< 0.01	0.0221	0.0137	0.0189	–	–	1.09
CCCC1(CC(=O)O)OCCc2c1[nH]c1ccccc21 (stereo unspecified)	> 100	> 100	> 100	> 100	> 100	> 100	–	–	–	–	–	> 100	–	–	–	–	–	–	–	–
N#CCC(=O)N/N=C1/C(=O)N(c2ccc(Cl)cc2)C(=O)C(=O)C1c1nc2ccccc2s1 (stereo unspecified)	> 100	> 100	> 100	63.7	> 100	–	–	–	–	–	–	> 100	–	–	–	–	–	–	–	–
COc1ccc(C(C#N)NC23CC4CC(CC(C4)C2)C3)cc1 (stereo unspecified)	> 100	> 100	> 100	> 100	–	> 100	–	–	–	> 100	–	> 100	–	–	–	–	–	> 100	–	> 100
CC(C)(C)c1cc([N+](=O)[O-])cc([N+](=O)[O-])c1O	> 10	> 10	> 10	> 10	–	> 10	–	–	–	> 10	–	> 10	–	–	–	–	–	> 10	–	> 10
O=C(Nc1ccc(Cl)cc1)C1C(=O)C(=O)N(c2ccc(Cl)cc2)C1=O (stereo unspecified)	> 100	> 100	–	> 100	> 100	> 100	–	–	–	–	–	> 100	–	–	–	–	–	–	–	–
CCCCCCCCCCCC(=O)OCCOCCOCCOCCOCCOC(=O)CCCCCCCCCCC	> 100	> 100	> 100	> 100	> 100	> 100	–	–	–	–	–	> 100	–	–	–	–	–	–	–	–
Cn1c(Cl)c(/C=C2/C(=O)Nc3ccccc32)c2ccccc21	14.9	1.23	–	23	–	> 22.1	0.758	0.371	–	–	4.08	> 35.7	1.4	0.592	0.0964	3.28	–	3.57	0.198	15.8
CCN1CCCc2cc3c(C(F)(F)F)cc(=O)oc3cc21	> 100	72.3	> 100	96.7	> 100	–	–	–	–	> 100	–	> 100	–	–	–	–	–	–	–	> 100
COc1ccc(NC(=O)CC/C(CC(=O)c2ccco2)=N/NC(=O)C(N)=O)cc1	–	> 100	> 100	> 100	> 100	> 100	–	–	–	–	–	> 100	–	–	–	–	–	–	–	–
C=CC[P@]1(=O)O[C@H](c2ccccc2)[C@H](C)N1C	> 100	> 100	> 100	> 100	> 100	> 100	–	–	–	–	–	> 100	–	–	–	–	–	–	–	–

Reference: PubChem BioAssay (NCI)
